Measured values as given in US20190247343A1, “USE OF FENOFIBRIC ACID IN THE TREATMENT OF HEPATIC DISEASES” (GENCOD, priority 2016, published 2019).
Values after ≈ are worked out from the molar mass of the structure shown. “Also recorded” adds a separate entry of the source.

Legend:
[1] = Solubility at saturation of salts and crystalline forms, buffered solution pH 6.0; assay type: physicochemical; settings: aqueous buffer pH 6.0, after 24 hours of stirring, European Pharmacopoeia criteria
Experimental: The purpose of this example is to determine the solubility characteristics of different crystalline forms and salts of fenofibric acid, with a view to administration by the oral mucosal route, in order to treat or forestall patients of liver diseases, such as fatty liver disease.
The solubilisation kinetics are determined by placing fenofibric acid samples at an excess in an aqueous buffered solution at pH 6.0, equivalent to salivary pH. Samples are taken after 0.5, 1, 2, 4, 6, 12 and 24 hours. They are analysed by HPLC after centrifugation and filtration of the samples on a 0.45 μm PTFE filter.
The samples are received from several Indian and Chinese suppliers. Fenofibric acid form II is obtained from a suspension of fenofibrate (ester) in isopropanol.
The results in terms of solubility at saturation (after 24 hours of stirring) are given in the table below and are expressed as per the criteria of the European Pharmacopoeia in force at the time of the tests. The melting points are obtained by DSC (endothermic peak, onset measurement).

immortalised human cells = experiment: In vitro cellular model in NASH/NAFLD: intracellular lipid droplet content; assay type: cell-based; settings: enriched medium, increasing concentrations, 24 hours
Source text: The applicant decided to explore in vitro approaches to test fenofibric acid as a medicinal product inhibiting progression of non-alcoholic fatty liver disease/steatohepatitis. In this field, only a few data obtained in NASH/NAFLD using cellular models have been published, whereas for other liver diseases, the research models and means are more numerous and more studied. In general, immortalised cell lines and primary cell cultures are widely used to develop in vitro models for research. The immortalised primary cells are candidate cells selected for the in vitro study due to the stable phenotype thereof, but also due to a culture method that is simple and standardised to carry out. The immortalised human cells were cultured in an enriched medium containing increasing fenofibric acid concentrations. The purpose of the study consisted of measuring the intracellular lipid droplet content. The entire staining procedure is conducted at ambient temperature while protecting the samples from direct light. The images were acquired with a fluorescence microscope. The intracellular lipid droplet content was determined by labelling. […] This trend is all the more noteworthy at the highest fenofibric acid concentration wherein the quantity and size of the droplets decreased in relation to that observed with the lowest dose.

mouse model of NASH = experiment: In vivo mouse model of non-alcoholic steatohepatitis; settings: mice on high-fat feed and fructose water, per os once daily
Experimental: Fenofibric acid is studied at 2 doses and administered per os once daily. […] The number of male mice is 60 for the curative part of the study. They follow the normal light cycle, and are divided into enriched ventilated cages, after a one-week acclimatisation period. The mice are fed with high-fat content feed and fructose-enriched tap water. The mice are treated with the references or with the test formulation according to 2 doses, with daily administration per os for about 2 months. […] At different weeks of treatment, blood is collected to measure the blood glucose level, insulin, total cholesterol and triglyceride level, as well as the ALT and AST levels. After the final collection, the mice are sacrificed to measure the total hepatic cholesterol, triglycerides and fatty acid levels. Liver samples are also collected for histological analysis and the NAS score/index.

[2] = In vitro oral penetration study, Franz type diffusion cells; assay type: in vitro ADME, pig; settings: 37° C., different concentrations and pH 4.5-7.4
Experimental: One of the preferred modes of administration is the oral mucous membrane route. In order to achieve this, the applicant prepared fenofibric acid solutions from samples provided by the supplier Harman Finochem (India). The in vitro penetration of the fenofibric acid formulation is evaluated using Franz type diffusion cells at 37° C., a system routinely used to evaluate the in vitro penetration of compounds through the skin, but with the oral mucous membrane as the membrane in this instance.
The applicant chose pig oral tissue because it has a non-keratinised morphology, relatively similar to the human oral epithelium (Gandhi, R. B. and Robinson. Adv Drug Deli Rev, 13:43-74, 1994). […]
The receptor compartment is filled with pH 7.4 buffer at 37° C. and the donor compartment with micronised fenofibric acid solution at 37° C. of different concentrations (from 0.2 mg/ml) with a pH also adjusted to pH 7.4 or a solution of fenofibric acid (0.5 mg/ml) in buffer solutions of different pH (4.5, 6.0, 6.8 and 7.4). Samples are taken from the receptor compartment at a predetermined time interval (2, 5, 10, 15, 30, 60, 90, 120, 150 and 180 minutes), replaced by the same volume of buffer and subsequently analysed using the HPLC method.
The quantity of fenofibric acid presented in the […] compartment is determined as a function of time. […]

[3] = Aqueous phase solubility as a function of pH / medium; assay type: physicochemical
[4] = Solubility in 50:50 binary mixture with a surfactant; assay type: physicochemical
[5] = Dissolution kinetics, USP type II paddle; assay type: physicochemical; settings: for fenofibric acid dissolved: FaSSIF and FeSSIF media
Experimental: The applicant studied the dissolution profile of several batches of fenofibric acid received from several suppliers. The starting material batches include different granulometric characteristics including one standard grade (non-micronised) and several micronised batches.
The batches of fenofibric acid were prepared in various pharmaceutical forms including the following excipients: hypromellose, milk protein concentrate, corn starch, Lactose monohydrate (0.4 mg/50 mg of active ingredient), sodium lauryl sulphate as surfactant, magnesium stearate, and talc as a flow agent required during production.
Dissolution tests were carried out on most of the formulation in media such as acetate buffer at […] and purified water. Similarly, the rings were tested in […] media simulating fed and fasting conditions, with addition of enzymes (media referred respectively as FeSSIF and FaSSIF) were also tested after the 50 and 100 mg doses. The USP type II paddle system was retained for the tests with 1000 ml of volume, 37° C. and the samples, taken at 0, 2, 5, 10, 15, 20, 30, 45 and 60 minutes, were analysed by HPLC without replenishing the media.

CC(C)(Oc1ccc(C(=O)c2ccc(Cl)cc2)cc1)C(=O)O [Fenofibric acid form II]
Solubility at saturation [1]: Slightly soluble

CC(C)(Oc1ccc(C(=O)c2ccc(Cl)cc2)cc1)C(=O)O [fenofibric acid, 2-(4-(4-chlorobenzoyl)phenoxy)-2-methylpropanoic]
intracellular lipid droplet content (immortalised human cells): dose-dependent fat reduction | increase in the triglyceride level (mouse model of NASH): significantly inhibit the increase | increase in the weight of the liver (mouse model of NASH): significantly inhibit the increase | plasma ALT concentration (mouse model of NASH): decreased substantially | development of fatty liver disease (macroscopic and microscopic examination of the liver) (mouse model of NASH; about 2 months): prevented the development of fatty liver disease | plasma ALT concentration (mouse model of NASH; listed as Fenofibric acid): notably reduced | increase in the fatty liver disease activity score (mouse model of NASH; liver histology): significantly inhibit the increase | increase in the fibrotic zones (mouse model of NASH; liver histology): significantly inhibit the increase | penetration through the porcine oral mucous membrane [2]: noteworthy penetration; also recorded: rapidly absorbed | solubility ([3]; 0.01M sodium lauryl sulphate, aqueous with cosolvent or surfactant or cyclodextrin): 90 µg/mL (≈ 282 µM) | solubility ([3]; 0.1M sodium lauryl sulphate, aqueous with cosolvent or surfactant or cyclodextrin): 810 µg/mL (≈ 2540 µM) | solubility ([3]; 0.1N HCl, simulated gastric fluid): 2 µg/mL (≈ 6.27 µM) | solubility ([3]; aqueous buffer, Phosphate buffer pH = 4.5): 40 µg/mL (≈ 125 µM) | solubility ([3]; aqueous buffer, Phosphate buffer pH = 5.5): 330 µg/mL (≈ 1040 µM) | solubility ([3]; aqueous buffer, Phosphate buffer pH = 6.5): 1060 µg/mL (≈ 3330 µM) | solubility as a function of pH ([3]; greatest at pH values closest to neutrality): increases as a function of pH | solubility ([3]; purified water, water): 20 µg/mL (≈ 62.7 µM) | Solubility in water ([4]; surfactant Cremophor EL, 50:50 binary mixture): 56 mg/g | Solubility in water ([4]; surfactant Cremophor RH40, 50:50 binary mixture): 59 mg/g | Solubility in water ([4]; surfactant Labrasol, 50:50 binary mixture): 55 mg/g | Solubility in water ([4]; surfactant Solutol HS15, 50:50 binary mixture): 60 mg/g | Solubility in water ([4]; surfactant Tween 80, 50:50 binary mixture): 61 mg/g | fenofibric acid dissolved ([5]; after 10 minutes): over 80% | fenofibric acid dissolved ([5]; after 30 minutes): entirety | dissolution of the active ingredient alone ([5]; after 60 minutes, paddle, 1000 ml, 37° C.): totally dissolved
